Test results reported in patent US20140371237A1, “p19Arf, HMGA2 and MDM2 For Use in the Diagnosis and Treatment of Aberrant Cell Growth” (University of Bremen, priority 2010, published 2014).

Columns and labels:
[1] = system: p53 in explants from an UL; assay: Western blot analysis of p53 in UL explants treated with nutlin-3; assay type: cell-based, human; conditions: explants of case 0700-1, 30 μM and 50 μM, 72 h
Description: Nutlin-3 acts as an inhibitor of MDM2 which in turn destabilizes p53. To see whether the increased expression of the senescence and apoptotic markers noted after treatment of the explants with nutlin-3 was indeed due to an elevated level of p53, explants of case 0700-1 treated with 30 μM and 50 μM nutlin-3, respectively, for 72 h were used for immunoblot analyses.
For treatment with nutlin-3 (Biomol, Hamburg, Germany) tissue samples were minced into small pieces of approximately 0.5 cm diameter and incubated in medium 199 supplemented with 20% FCS and nutlin-3 (3, 10, or 50 μM) for 72 h. As controls tissue explants were incubated in medium 199 supplemented with 20% FCS without nutlin-3 for 72 h.
Protein extracts were obtained using RIPA buffer and concentrations were determined using a BCA protein assay (Thermo Scientific, Rockford, USA) according to the manufacturer's instructions. Total protein (16 μg per lane) was separated using a SDS-polyacrylamide gel and transferred onto a nitrocellulose membrane. SeeBlue Plus2 Pre-Stained Standard (Invitrogen, Karlsruhe, Germany) was used as marker. […]

[2] = system: canine ADSCs; assay: Treatment of canine ADSCs with nutlin-3, qRT-PCR of HMGA2 and p21; assay type: cell-based; conditions: two donors, 30 μM and 50 μM, 72 h
Description: Canine subcutaneous adipose tissue was taken during surgery, transferred into sterile Hank's solution and minced for cell culture into small pieces followed by treatment with 0.26% (200 U/ml) collagenase (Serva, Heidelberg, Germany). From these samples ADSCs were isolated. Briefly, after 1-2 hours, the dissociated cells were transferred into sterile 25 cm^2 cell culture flasks containing 5 ml medium 199 (Gibco, Karlsruhe, Germany), supplemented with 20% fetal bovine serum (FCS, Invitrogen, Karlsruhe, Germany) and 2% penicillin-streptomycin (Biochrom, Berlin, Germany). The cultures were incubated in 5% CO2 air at 37° C. and medium was changed every two to three days. […]
Relative quantification of transcription levels was carried out by real-time PCR analyses using the Applied Biosystems 7300 Real-Time PCR system (Applied Biosystems, Darmstadt, Germany). For quantification of mRNA levels of canine p21a commercially available gene expression assay was used (Hs99999142) (Applied Biosystems, Darmstadt, Germany). […] For canine cells the housekeeping gene beta-glucuronidase (GUSB) served as the reference for relative quantification because in contrast to some other housekeeping genes its expression turned out not to increase in serum starved ADSCs when induced by fetal serum in our own experiments. […]

[3] = system: p53 in tissue explants (UL and matching myometrium); assay: Immunohistochemical staining for p53 of tissue explants treated with nutlin-3; assay type: cell-based, human
Description: […] As controls tissue explants were incubated in medium 199 supplemented with 20% FCS without nutlin-3 for 72 h.
The immunohistochemical staining for the p53 protein (clone DO-7, DAKO, Glostrup, Denmark) was performed using a detection kit (DAKO ChemMate, DAKO, Glostrup, Denmark) and a semi-automated stainer (DAKO TechMate, DAKO, Glostrup, Denmark) according to the specifications of the manufacturer. For antigen retrieval the slides were treated in a PT Link module (DAKO, Glostrup, Denmark) using the EnVision™ FLEX Target Retrieval Solution, Low pH (DAKO, Glostrup, Denmark). The antibody dilution was 1:100.

[4] = case 0687-0, 10 μM, 72 h (control 0)
[5] = case 0687-0, 30 μM, 72 h (control 0)
[6] = case 0687-1, 10 μM, 72 h (control 0)
[7] = case 0695-0, 10 μM, 6 days (control 0)
[8] = case 0695-0, 30 μM, 6 days (control 0)
[9] = case 0695-1, 10 μM, 6 days (control 0)
[10] = case 0695-1, 30 μM, 6 days (control 0)
[11] = case 0695-2, 10 μM, 6 days (control 0)
[12] = case 0695-2, 30 μM, 6 days (control 0)
[13] = case 0695-3, 10 μM, 6 days (control 0)
[14] = case 0695-3, 30 μM, 6 days (control 0)

SMILES: COc1ccc(C2=N[C@@H](c3ccc(Cl)cc3)[C@@H](c3ccc(Cl)cc3)N2C(=O)N2CCNC(=O)C2)c(OC(C)C)c1 [nutlin-3]
- amount of p53 (immunoblot) [1]: concentration-dependent increase
- expression of HMGA2 [2]: significant decrease
- expression of p21 [2]: increase
- intensity (p53 staining, IHC) [3, 4]: 1
- number of p53-positive cells [3, 4]: 2
- intensity (p53 staining, IHC) [3, 5]: 2
- number of p53-positive cells [3, 5]: 257
- intensity (p53 staining, IHC) [3, 6]: 2
- number of p53-positive cells [3, 6]: 398
- intensity (p53 staining, IHC) ([3]; case 0694-2, 10 μM, 72 h (control 0-1)): 2
- number of p53-positive cells ([3]; case 0694-2, 10 μM, 72 h (control 11)): 393
- intensity (p53 staining, IHC) ([3]; case 0694-2, 30 μM, 72 h (control 0-1)): 3
- number of p53-positive cells ([3]; case 0694-2, 30 μM, 72 h (control 11)): 1,277
- intensity (p53 staining, IHC) [3, 7]: 1
- number of p53-positive cells [3, 7]: 11
- intensity (p53 staining, IHC) [3, 8]: 1
- number of p53-positive cells [3, 8]: 188
- intensity (p53 staining, IHC) [3, 9]: 0-1
- number of p53-positive cells [3, 9]: 42
- intensity (p53 staining, IHC) [3, 10]: 1
- number of p53-positive cells [3, 10]: 89
- intensity (p53 staining, IHC) [3, 11]: 1-2
- number of p53-positive cells [3, 11]: 194
- intensity (p53 staining, IHC) [3, 12]: 3
- number of p53-positive cells [3, 12]: 799
- intensity (p53 staining, IHC) [3, 13]: 3
- number of p53-positive cells [3, 13]: 770
- intensity (p53 staining, IHC) [3, 14]: 3
- number of p53-positive cells [3, 14]: 1,493
- number of p53-positive cells, UL compared with matching myometrium ([3]; explants treated by nutlin-3): increased number of p53-positive cells
- intensity of p53 staining (IHC) ([3]; explants treated by nutlin-3, concentration-dependent): clearly increased intensity
